Measurements from patent US20250082630A1, “METHODS OF TREATING BRAIN TUMOURS AND NEUROBLASTOMAS” (AstraZeneca AB, priority 2021, published 2025).

Experiments:
U87 IDH1wt ATRXwt = experiment: Monotherapy treatment, U87 IDH1wt ATRXwt; type: cell-based; settings: read-out: Compound 20 IC50
Procedure: (§1) To evaluate the activity and potency of the PARP inhibitors described herein in combination with the standard of care chemotherapy Temozolamide (TMZ), ionizing radiation (IR) and the emerging chemotherapy VAL-083, U87, SJG2 and BT245 glioblastoma cells were assayed. Parental U87 cell lines were obtained from the AstraZeneca Global Cell Bank in Alderley Park, UK and the isocistrate dehydrogenase 1 mutant cell line (IDH1 mt R1 32H) was licensed in from ATCC. The SJ-G2 (ATRX mutant) and BT245 (H3K27M mutant) cell lines were obtained from The Research Institute of the McGill University Health Centre, Montreal, QC H4A 3J1, Canada. IDH1R132 mutation was induced in SJG2 cell line to generated isogenic pair (SJG2 IDH1mt and SJG2 IDH1 wt). […]
(§2) For the nuclear count end point assay, cells were fixed for ˜15 minutes (min) by the addition of 50 μl per well of Formaldehyde (Sigma-Aldrich F8775). […] The images were acquired using CellInsight CX5 (Thermo Fisher) and analysed by measuring the total number of hoechst stained nuclei. The number of nuclei (% confluence) of the drug treated wells were normalised to the DMSO control and the growth inhibition was calculated using the combenefit software (Di Veroli et al., 2016).

U87 IDH1mt ATRXwt = experiment: Monotherapy treatment, U87 IDH1mt ATRXwt; type: cell-based; settings: read-out: Compound 20 IC50
Procedure: as §1, §2

SJ-G2 IDH1mt ATRXmt = experiment: cells; settings: SJ-G2, read-out: Compound 20 IC50
Procedure: as §1, §2

[1] = tested on: PARylation in U87 isogenic pair; experiment: PARylation inhibition in U87 isogenic pair; type: cell-based; settings: data not shown
PARP1 = PARP1 (Homo sapiens (Human), UniProt P09874); experiment: PARP1 trapping; type: cell-based; settings: data not shown
Chain of PARP1 (P09874 whole entry): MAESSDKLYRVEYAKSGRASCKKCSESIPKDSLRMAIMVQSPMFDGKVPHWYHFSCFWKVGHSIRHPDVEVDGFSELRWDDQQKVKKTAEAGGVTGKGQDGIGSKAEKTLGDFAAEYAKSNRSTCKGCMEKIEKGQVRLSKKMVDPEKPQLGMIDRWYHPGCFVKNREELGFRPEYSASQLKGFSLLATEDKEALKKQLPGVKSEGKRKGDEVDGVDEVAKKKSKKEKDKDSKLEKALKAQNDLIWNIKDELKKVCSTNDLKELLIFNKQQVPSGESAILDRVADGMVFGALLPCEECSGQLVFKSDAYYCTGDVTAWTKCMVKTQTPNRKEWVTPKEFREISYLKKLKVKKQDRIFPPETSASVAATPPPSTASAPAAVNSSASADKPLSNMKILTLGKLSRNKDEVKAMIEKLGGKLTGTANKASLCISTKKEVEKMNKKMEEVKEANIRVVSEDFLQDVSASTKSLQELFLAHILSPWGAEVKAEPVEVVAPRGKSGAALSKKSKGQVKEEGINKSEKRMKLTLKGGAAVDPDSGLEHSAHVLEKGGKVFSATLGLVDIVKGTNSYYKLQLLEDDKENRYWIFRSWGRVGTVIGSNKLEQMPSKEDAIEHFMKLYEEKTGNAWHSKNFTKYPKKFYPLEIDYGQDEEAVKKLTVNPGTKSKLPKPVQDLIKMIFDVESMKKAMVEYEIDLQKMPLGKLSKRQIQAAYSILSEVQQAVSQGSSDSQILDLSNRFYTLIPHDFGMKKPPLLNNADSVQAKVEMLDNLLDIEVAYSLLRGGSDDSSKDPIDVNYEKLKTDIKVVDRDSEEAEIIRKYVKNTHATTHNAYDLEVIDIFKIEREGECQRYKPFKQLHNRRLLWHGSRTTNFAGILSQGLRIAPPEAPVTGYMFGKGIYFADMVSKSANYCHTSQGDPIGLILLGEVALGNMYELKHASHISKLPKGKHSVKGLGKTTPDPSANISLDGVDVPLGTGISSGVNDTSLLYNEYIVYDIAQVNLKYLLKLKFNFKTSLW

U87 IDH1 mt R132H = experiment: Combination assay PARP inhibitor with TMZ, U87 IDH1mt; type: cell-based
Procedure: as §1, §2

U87MG xenograft = type: in vivo, female Nude mice; settings: Compound 20 3 mg/kg QD in combination with TMZ 6.25 mg/kg QD on days 1-5 and 29-33, PO
Procedure: U87MG cells (2.5 million in serum-free MEM medium) were implanted subcutaneously (SC) into the dorsal flank of female Nude mice (weight greater than 18 g). Tumours were measured (length x width) two times weekly by bilateral Vernier calliper measurements and tumour volume was calculated using elliptical formula (π/6×width×width×length). Animal bodyweight and tumour condition were monitored throughout the study. Mice were randomised into treatment groups when mean tumour volume reached approximately 0.2 cm^3.
Animals were treated orally (PO) from the day after the randomisation. Control animals were treated with vehicle (water/methane sulfonic acid (MSA) pH3-3.2) once daily for 10 days (QD×10). PARP inhibitor in water/MSA pH3-3.2 was dosed in the monotherapy and combination groups at 3 mg/kg QD×10 or QD×33, respectively. Temozolomide (TMZ) in OraPlus Perrigo was dosed in the monotherapy group at 25 mg/kg QD on days 1-5 and 29-33, and in monotherapy and combination group at 6.25 mg/kg QD on days 1-5 and 29-33.
Tumour growth inhibition from start of treatment was assessed by comparison of the mean change in tumour volume (TV) of the control and treated groups and represented as percent tumour growth inhibition (TGI, when tumour volume (TV) >starting TV) or tumour regression (reg, when TV<starting TV). Statistical significance was evaluated using a one-tailed t test. Statistical significance is indicated as follows: *p:0.05, **p:0.01, ***p:0.001.

[2] = tested on: U87 IDH1 wt and IDH1 mt isogenic pairs; experiment: Combination assay PARP inhibitor with VAL-083, U87 isogenic pairs; type: cell-based
Procedure: as §1, §2

[3] = tested on: SJ-G2 IDH1 wt and IDH1mt isogenic pairs; experiment: Combination assay PARP inhibitor with VAL-083, SJ-G2 isogenic pairs; type: cell-based
Procedure: as §1, §2

[4] = tested on: BT245 H3K27M paediatric glioma cells; experiment: Combination assay PARP inhibitor with ionizing radiation (colony formation); type: cell-based; settings: 0.9 Gy, multiple doses of the inhibitor
Procedure: DMSO served as a vehicle control. […] Next, cells were fixed and stained using the Sulforhodamin B acid form (SRB) [Sigma, 341738-5g] reconstituted in 1% Acetic Acid as the stain is added straight after fixation without any washing step which limits cell detachment. Plates with stained colonies were scanned with the GelCount colony counter (Oxford OPTRONIX) at 600 dpi resolution. Colony formation was scored by quantifying the total optical density measured with ImageJ software, using a 24-well plate Region of Interest (ROI) mask (CFU, colony formation units). Data analysis was performed by normalisation on the vehicle treated of the respective plate set as =100. […] In the represented plots error bars are mean±SD.

## CNC(=O)c1ccc(N2CCN(Cc3ccc4nc(C)c(=O)[nH]c4c3F)CC2)c(F)n1 [Example 20, 6-fluoro-5-[4-[(5-fluoro-2-methyl-3-oxo-4H-quinoxalin-6-yl)methyl]piperazin-1-yl]-N-methyl-pyridine-2-carboxamide]
U87 IDH1wt ATRXwt
  IC50: > 100000 nM
U87 IDH1mt ATRXwt
  IC50: > 100000 nM
SJ-G2 IDH1mt ATRXmt
  IC50: 1750 nM
[1]
  IC95 for PARylation inhibition: 8 nM
PARP1
  lowest concentration with potent trapping of PARP1: 10 nM
U87 IDH1 mt R132H; U87 IDH1mt
  concentration at which Compound 20 synergises with TMZ: 1 µM
U87 IDH1 mt R132H; U87 IDH1mt vs IDH1 wt
  lower concentration for synergy with TMZ in IDH1mt compared to wild type: 10 fold
U87MG xenograft
  tumour regression: 95%
  tumours regressed: 8/8
[2]
  combination effect with VAL-083: synergises with VAL-083
[3]; 1 μM Compound 20, ATRX mutant cell lines
  activity in the absence of VAL-083: has activity
[3]; SJ-G2 IDH1 wt and IDH1mt, ATRX mutant
  combination effect with VAL-083: enhanced combination benefit
[4]
  combination effect with ionizing radiation: enhanced combination benefit
